Experiments:
[1] = Liquid; for mass density: 101.33 kPa, Vibrating tube method; for speed of sound: Pulse-echo method
[2] = molar heat capacity at constant pressure; settings: 101.33 kPa, Liquid, Small sample (50 mg) DSC

CCCCCCCCCC(=O)OCC [ethyl decanoate]
Settings | mass density, [1] [kg/m3] | molar heat capacity at constant pressure, [2] [J/K/mol]
283.15 K | 872.11 | –
286.16 K | – | 397.73
288.15 K | 868.06 | 398.53
293.15 K | 864 | 400.88
298.15 K | 859.94 | 403.34
303.15 K | 855.88 | –
303.16 K | – | 405.67
308.14 K | 851.82 | –
308.16 K | – | 408.17
313.14 K | 847.75 | –
313.16 K | – | 410.93
318.15 K | 843.68 | 413.64
323.15 K | 839.6 | 416.52
328.15 K | 835.52 | –
328.16 K | – | 419.55
333.14 K | – | 422.31
333.15 K | 831.43 | –
338.14 K | 827.33 | –
338.15 K | – | 425.46
341.11 K | – | 427.36
343.15 K | 823.23 | –
348.15 K | 819.11 | –
353.14 K | 814.99 | –

[1]
Settings | speed of sound [m/s]
292.9 K, 30390 kPa | 1453.5
292.9 K, 45590 kPa | 1511.7
292.9 K, 60790 kPa | 1565.9
292.9 K, 75990 kPa | 1616.7
292.9 K, 101320 kPa | 1693.9
292.91 K, 15200 kPa | 1389.4
292.91 K, 91180 kPa | 1664.3
292.92 K, 100 kPa | 1313.8
298.17 K, 30390 kPa | 1436.1
298.17 K, 45590 kPa | 1494.9
298.17 K, 60790 kPa | 1549.4
298.17 K, 75990 kPa | 1601.3
298.17 K, 91180 kPa | 1648.6
298.17 K, 101320 kPa | 1678.8
298.18 K, 100 kPa | 1293.9
298.18 K, 15200 kPa | 1370.6
303.16 K, 100 kPa | 1275.2
303.16 K, 30390 kPa | 1419.1
303.16 K, 45590 kPa | 1479.6
303.16 K, 60790 kPa | 1534.7
303.16 K, 75990 kPa | 1586.9
303.16 K, 91180 kPa | 1635
303.16 K, 101320 kPa | 1665.9
303.17 K, 15200 kPa | 1353.1
308.13 K, 45590 kPa | 1464.6
308.13 K, 75990 kPa | 1572.1
308.13 K, 101320 kPa | 1652.9
308.14 K, 100 kPa | 1256.8
308.14 K, 15200 kPa | 1335.4
308.14 K, 30390 kPa | 1403
308.14 K, 60790 kPa | 1520.1
308.14 K, 91180 kPa | 1621.8
313.09 K, 45590 kPa | 1449.8
313.09 K, 75990 kPa | 1559.2
313.09 K, 91180 kPa | 1608.6
313.09 K, 101320 kPa | 1639
313.1 K, 30390 kPa | 1387.5
313.1 K, 60790 kPa | 1506.2
313.11 K, 100 kPa | 1238.5
313.11 K, 15200 kPa | 1318.7
318.26 K, 75990 kPa | 1544.9
318.26 K, 91180 kPa | 1594.7
318.26 K, 101320 kPa | 1626.5
318.27 K, 15200 kPa | 1301.6
318.27 K, 30390 kPa | 1371.7
318.27 K, 45590 kPa | 1434.9
318.27 K, 60790 kPa | 1491.6
318.28 K, 100 kPa | 1219.7

— the NIST ThermoML archive (doi:10.1021/je400157s)
